# Data: PMC7942396, “Drug Repurposing Screen for Compounds Inhibiting the Cytopathic Effect of SARS-CoV-2” (Frontiers in Pharmacology, 2021)
# Counter-ions that a name gives are not always drawn. Like-named read-outs stand apart in the source and are kept apart here. *1 amine or outer side, *2 acyl side, *3 side chain or, on linkers, in order; H or OH if unused. Where a SMILES comes first, the peptide text is derived from it. Bridges are numbered along the chain shown (N, C = ends). [ ]: non-standard residue; d: D form. The star is where a group is joined. pTerphenylCO(4''-OnC5H11) = CCCCCOc1ccc(-c2ccc(-c3ccc(C(=O)*)cc3)cc2)cc1; Orn(4R-OH,5R-OH) = O=C([C@H](C[C@@H](O)[C@@H](O)N[*:3])N[*:1])[*:2]; hTyr(3S-OH,4S-OH) = N[C@H](C(=O)O)[C@H](O)[C@@H](O)c1ccc(O)cc1; Pro(3S-OH,4S-Me) = C[C@H]1CN[C@H](C(=O)O)[C@H]1O; Hyp = O=C(O)[C@@H]1C[C@@H](O)CN1
# Tests used:
# [1] = system: SARS-CoV-2 (USA_WA1/2020); test: microbe, parasite or virus in culture; type: cell-based
# in vitro = conditions: African green monkey
# [2] = Severe acute respiratory syndrome coronavirus 2, Vero C1008, SARS-CoV-2 CPE assay, Vero E6 cells, confirmed anti-SARS-CoV-2 compounds, read-out: CPE EC50
# [3] = Severe acute respiratory syndrome coronavirus 2, Vero C1008, SARS-CoV-2 CPE assay, Vero E6 cells, efficacy, read-out: CPE % Efficacy
# [4] = Severe acute respiratory syndrome coronavirus 2, Vero C1008, […], DMSO 0%, no-virus control 100%, hit confirmation, read-out: CPE % efficacy
# [5] = Severe acute respiratory syndrome coronavirus 2, Vero C1008, SARS-CoV-2 CPE assay, Vero E6 cells, read-out: CPE % Efficacy
# [6] = Severe acute respiratory syndrome coronavirus 2, Vero C1008, SARS-CoV-2 CPE assay, Vero E6 cells, read-out: CPE EC50
# [7] = Severe acute respiratory syndrome coronavirus 2, Vero C1008, 72 h, read-out: CPE EC50
SMILES,"EC50 [1, 2] [µM]","Emax [1, 3] [%]",CC50 (in vitro) [µM],cytotoxicity (in vitro) [%],cytotoxicity at 72 h (in vitro) [%],further results
COc1cc(N2CCN(C)CC2)ccc1Nc1nccc(-c2cn(C)c3cnccc23)n1 [AZ-191],8.91,79.2,11.2,31.2,–,–
CC1=C(c2ccc(O)cc2)[C@H](c2ccc(OCCN3CCCCC3)cc2)Oc2cc(O)ccc21 [Acolbifene],5.62,56.1,12.6,54.1,–,–
Cc1cc(O[C@@H](CCC(F)(F)F)c2ccc(C(=O)NCCC(=O)O)cc2)cc(C)c1-c1ccc(C(C)(C)C)cc1 [Adomeglivant],3.16,49.2,–,–,37,–
"CCCCc1oc2ccccc2c1C(=O)c1cc(I)c(OCCN(CC)CC)c(I)c1 [Amiodarone hydrochloride, reference compound]",–,–,–,< 30,–,"Emax [1, 4]: 100%"
CN(C)CCC=C1c2ccccc2CCc2ccccc21 [Amitriptyline hydrochloride],–,–,–,0,–,"Emax [1, 5]: 69.9%; EC50 [1, 6]: 14.1 µM"
CCOC(=O)C1=C(COCCN)NC(C)=C(C(=O)OC)C1c1ccccc1Cl (stereo not shown) [Amlodipine],–,–,–,0,–,"Emax [1, 5]: 99.8%; EC50 [1, 6]: 12.6 µM"
Clc1ccc2c(c1)C(N1CCNCC1)=Nc1ccccc1O2 [Amoxapine],–,34.1,–,13.9,–,–
S=C(NCc1ccc2c(c1)OCO2)N1CCN(c2ncnc3c2oc2ccccc23)CC1 [Amuvatinib],3.55,69.8,3.16,30.1,–,–
"CCCCCOc1ccc(-c2ccc(-c3ccc(C(=O)N[C@H]4C[C@@H](O)[C@@H](O)NC(=O)[C@@H]5[C@@H](O)[C@@H](C)CN5C(=O)[C@H]([C@@H](C)O)NC(=O)[C@H]([C@H](O)[C@@H](O)c5ccc(O)cc5)NC(=O)[C@@H]5C[C@@H](O)CN5C(=O)[C@H]([C@@H](C)O)NC4=O)cc3)cc2)cc1 [Anidulafungin] ({pTerphenylCO(4''-OnC5H11)}-[Orn(4R-OH,5R-OH)]T[Hyp][hTyr(3S-OH,4S-OH)]T[Pro(3S-OH,4S-Me)]; lactam 1-C)",6.95,68.4,8.75,33.7,–,–
"Cc1cccc(/C=N/Nc2cc(N3CCOCC3)nc(OCCc3ccccn3)n2)c1 [Apilimod, reference compound]",–,–,–,–,< 30,"EC50 [1, 7]: 0.023 µM; Emax [1, 4]: 104%"
CCOC(=O)c1c(CSc2ccccc2)n(C)c2cc(Br)c(O)c(CN(C)C)c12 [Arbidol],11.2,105,12.6,17.3,–,–
C=CC(=O)N[C@H]1CCOC[C@H]1Nc1ncc2cc(-c3c(Cl)c(OC)cc(OC)c3Cl)ccc2n1 [BLU-554],–,–,–,–,0,"Emax [1, 5]: 31.5%; EC50 [1, 6]: 12.6 µM"
C[C@@H](C(=O)Nc1ccc(Cl)cc1)C1CCC(c2ccnc3ccc(F)cc23)CC1 (stereo partly shown) [BMS-986205],–,–,–,37.7,–,"Emax [1, 5]: 69.8%"
"CCCN1CCN(c2ccc(C(=O)NC3(C(=O)NCC#N)CCCCC3)cc2)CC1 [Balicatib, reference compound]",–,–,–,–,< 30,"EC50 [1, 7]: 2 µM; Emax [1, 4]: 100%"
Nc1nc(Nc2ccc3c(c2)CC[C@@H](N2CCCC2)CC3)nn1-c1cc2c(nn1)-c1ccccc1CCC2 [Bemcentinib],3.55,69.6,–,–,115,CC50 at 72 h (in vitro): 11.2 µM
CCOC(=O)[C@H](CCc1ccccc1)N[C@H]1CCc2ccccc2N(CC(=O)O)C1=O [Benazepril],–,–,–,0,–,"Emax [1, 5]: 108%; EC50 [1, 6]: 12.6 µM"
CN1[C@@H]2CC[C@H]1C[C@@H](OC(c1ccccc1)c1ccccc1)C2 [Benztropine mesylate],–,–,–,0,–,"Emax [1, 5]: 59%"
CC(C)COCC(CN(Cc1ccccc1)c1ccccc1)N1CCCC1 (stereo not shown) [Bepridil],11.2,113,22.4,25.4,–,–
"CNCc1ccc(-c2cc(-c3nc(-c4ccc(S(=O)(=O)C(C)C)cc4)cnc3N)on2)cc1 [Berzosertib, reference compound]",–,–,–,–,–,"Shape of concentration-response in the CPE assay ([1]; Figure 3): bell-shaped concentration-responses due to cytotoxicity; EC50 [1, 7]: 0.71 µM; Emax [1, 4]: 87.9%; CC50 at 72 h (in vitro): 11.2 µM"

SMILES,"EC50 [1, 2] [µM]","Emax [1, 3] [%]",CC50 (in vitro) [µM],cytotoxicity (in vitro) [%],cytotoxicity at 72 h (in vitro) [%],further results
c1ccc(-c2ccc(C(c3ccccc3)n3ccnc3)cc2)cc1 (stereo not shown) [Bifonazole],10,36.4,–,24.5,–,–
O=c1ccc2ccc(OCCCCN3CCN(c4cccc5sccc45)CC3)cc2[nH]1 [Brexpiprazole],–,–,11.2,25.1,–,"Emax [1, 5]: 94.9%; EC50 [1, 6]: 14.1 µM"
CN(C)CCOC(c1ccccc1)c1ccc(Br)cc1 (stereo not shown) [Bromodiphenhydramine],–,–,–,–,0,"Emax [1, 5]: 36%; EC50 [1, 6]: 12.6 µM"
COC(=O)[C@@]12OC[C@]34[C@H]([C@@H](O)[C@@H]1O)[C@@]1(C)CC(=O)C(O)=C(C)[C@@H]1C[C@H]3OC(=O)[C@H](OC(=O)/C=C(\C)C(C)C)[C@@H]24 [Bruceantin],0.0319,42.5,0.14,83.3,–,–
COc1ccc2c(c1)[C@]1(C[C@H]1c1ccc3c(/C=C/c4ccc(CN5C[C@@H](C)O[C@@H](C)C5)cc4)n[nH]c3c1)C(=O)N2 [CFI-400945],11.2,77.8,–,–,31.4,–
Cn1c(Nc2ccc(C(F)(F)F)cc2)nc2cc(Oc3ccnc(-c4ncc(C(F)(F)F)[nH]4)c3)ccc21 [CHIR-265],0.79,31.7,0.32,92.7,–,–
COc1c(C)cnc(Cn2cnc3c(Cl)nc(N)nc32)c1C [CNF-2024],2.24,51.3,0.35,21.1,–,–
CN(C)c1cc2c(cc1Sc1nc3c(N)nccc3n1CCNCC(C)(C)C)OCO2 [CUDC-305],2.51,74.5,–,–,27.7,CC50 at 72 h (in vitro): 0.71 µM
"CCCC[C@@H](C=O)NC(=O)[C@H](CC(C)C)NC(=O)OCc1ccccc1 [Calpeptin, reference compound]",–,–,–,< 30,–,"EC50 [1, 7]: 0.5 µM; Emax [1, 4]: 112%"
Cc1ccc(-c2cc(C(F)(F)F)nn2-c2ccc(S(N)(=O)=O)cc2)cc1 [Celecoxib],11.2,79.2,15.8,9,–,–
COc1ccc2cc1Oc1ccc(cc1)C[C@H]1c3c(cc4c(c3Oc3cc5c(cc3OC)CCN(C)[C@@H]5C2)OCO4)CCN1C [Cepharanthine],1.41,91.3,11.2,105,–,–
CN1CCN(C(c2ccccc2)c2ccc(Cl)cc2)CC1 (stereo not shown) [Chlorcyclizine],–,–,–,–,18,"Emax [1, 5]: 67.4%; EC50 [1, 6]: 12.6 µM; CC50 at 72 h (in vitro): 22.4 µM"
Oc1c(Cl)cc(Cl)c2cccnc12 [Chloroxine],11.2,64.9,7.08,61.5,–,–
CN(C)CCOC(C)(c1ccccc1)c1ccc(Cl)cc1 (stereo not shown) [Chlorphenoxamine],6.31,75.3,–,–,36.9,CC50 at 72 h (in vitro): 11.2 µM
CN(C)CCCN1c2ccccc2Sc2ccc(Cl)cc21 [Chlorpromazine],–,–,11.2,45.6,–,"Emax [1, 5]: 102%; EC50 [1, 6]: 12.6 µM"
Cc1cc(C2CCCCC2)n(O)c(=O)c1 [Ciclopirox],8.91,63.4,–,–,56.1,CC50 at 72 h (in vitro): 2.51 µM
Oc1c(I)cc(Cl)c2cccnc12 [Clioquinol],6.31,55.1,–,–,62.2,CC50 at 72 h (in vitro): 3.16 µM
CN(C)CCCN1c2ccccc2CCc2ccc(Cl)cc21 [Clomipramine hydrochloride],–,91.6,–,33.2,–,–
CN(C)CCC=C1c2ccccc2C=Cc2ccccc21 [Cyclobenzaprine hydrochloride],–,–,–,23.9,–,"Emax ([1]; Severe acute respiratory syndrome coronavirus 2, Vero C1008, read-out: CPE % Efficacy): 77.2%; EC50 ([1]; Severe acute respiratory syndrome coronavirus 2, Vero C1008, read-out: CPE EC50 (uM)): 12.6 µM"
